The values that follow come from PMC9412534, “Diindolylmethane Derivatives: New Selective Blockers for T-Type Calcium Channels” (Membranes, 2022).

Structures are written as SMILES. Where only a bound is given, the exact number is not on record here.

One series has as its target T1, CaV2.2 (Homo sapiens, UniProt Q00975).
T1 construct: endogenous in cells; host or cells: SH-SY5Y human neuroblastoma cells
Description: HVA N-type calcium channel FLIPR assay in SH-SY5Y cells. The class given is cell-based. The note with it: 10 µM nifedipine present, n = 3, read-out: IC50 CaV2.2 (HVA CaVs). How it is done:
(§1) The human embryonic kidney 293 (HEK 293) cell lines (from Emmanuel Bourinet, Montpellier, France) stably expressing CaV3.2 or CaV3.3 were cultured under 5% carbon dioxide at 37 °C in Dulbecco’s Modified Eagle Medium (DMEM) Glutamax (Gibco, Life Technologies, Carlsbad, CA, USA) supplemented with 10% (v/v) fetal bovine serum (FBS), 100 U/mL penicillin, 100 μg/mL streptomycin (Gibco, Life Technologies, Carlsbad, CA, USA), and 750 μg/mL geneticin (G418) (Gibco, Life Technologies). The Chinese Hamster Ovary (CHO) cell lines (Emmanuel Bourinet, Montpellier, France) expressing CaV3.1 were cultured under 5% carbon dioxide at 37 °C in Alpha Minimum Essential Media (MEM) Glutamax (Gibco, Life Technologies), supplemented with 10% (v/v) fetal bovine serum (FBS) and 300 μg/mL geneticin (G418) (Gibco, Life Technologies). The human neuroblastoma SH-SY5Y cells (Victor Diaz, Goettingen, Germany) were cultured under 5% carbon dioxide at 37 °C in RPMI 1640 antibiotic-free medium (Invitrogen, Carlsbad, CA, USA), supplemented with 15% FBS and 2 mM GlutaMAX™ (Invitrogen). D-PBS (Gibco, Life Technologies) was used to wash the cells, and 0.25% Trypsin-EDTA (Gibco, Life Technologies) was used to detach cells from the flask surface. They were split in a ratio of 1:5 (ideally 1000 cells/cm^2) when they reached 70–80% confluence (every 2–3 days). Transiently transfected CaV3.1 HEK293 T cells were used in FLIPR Assays. HEK 293 T cells were cultured under 5% carbon dioxide at 37 °C in DMEM supplemented with 10% (v/v) FBS. D-PBS was used to wash the cells, and 0.25% Trypsin-EDTA was used to detach cells from the flask surface. The cells were split and seeded at 6 million cells per T175 flask, to reach 70–80% confluence after 24 h. The next day, 12 μg DNA of human CaV3.1 was incubated in 900 μL serum-free DMEM with 36 μL FuGENE HD transfection reagent (Promega Corporation, Madison, WI, USA) (1:3 DNA/Fugene ratio) for 20 min, and then the mixture was added into the cell flask slowly, drop by drop. After the transfection, the cells were cultured under 5% carbon dioxide at 37 °C for 24 h and then moved to a 28 °C incubator.
(§2) SH-SY5Y cells were seeded into 384-well black wall clear bottom plates at a density of 15,000 cells per well, resulting in 90–95% confluence after 24 h. The media were then removed from the wells and replaced with 20 μL of 10% calcium 4 dye (Molecular Devices) in physiological salt solution (PSS) (containing 5.9 mM KCl, 1.4 mM MgCl2, 10 mM HEPES, 1.2 mM NaH2 PO4, 5 mM NaHCO3, 140 mM NaCl, 11.5 mM glucose, and 1.8 mM CaCl2, pH 7.4) with 0.1% BSA. As reported, for N-type calcium channel FLIPR assays the cells were pre-incubated with 10 µM nifedipine added in the dye to ensure full inhibition of L-type calcium responses. For L-type calcium channel FLIPR assays, the cells were pre-incubated with 1 µM CVID added in the dye to ensure full inhibition of N-type calcium responses. Positive control on the first reagent plate contained 15 μL of PSS (0.1% BSA), whereas PSS (0.1% BSA) containing 1 µM CVID and 10 µM nifedipine (final concentration) was used as a negative control. The fluorescence readings were recorded and converted as described previously, and agonist containing 90 mM KCl + 5 mM CaCl2 was used in the second addition.

In another series the target is CaV3.3 (Homo sapiens, UniProt Q9P0X4). Description: T-type calcium channel window current FLIPR assay, CaV3.3. Particulars: FLIPR window current; for IC50: n = 3, read-out: IC50 CaV3.3 (LVA CaVs). The class given is cell-based. The protocol:
as §1
(§3) HEK 293 cells stably expressing CaV3.2 or CaV3.3 were seeded into 384-well black wall clear bottom plates (Corning) at a density of 30,000 cells per well. Transiently transfected CaV3.1HEK293 T cells were seeded into 384-well black wall clear bottom plates at a density of 60,000 cells per well. Once the cells reached 90–95% confluence after 24 h, the media were removed from the wells and replaced with 20 μL of 10% calcium 4 dye (Molecular Devices, Sunnyvale, CA, USA) in HBSS-HEPES (containing 5 mM KCl, 10 mM HEPES, 140 mM NaCl, 10 mM glucose, and 0.5 mM CaCl2, pH 7.4) with 0.1% bovine serum albumin (BSA). The cells were incubated for 30 min at 37 °C in the presence of 5% carbon dioxide. Each well on the reagent plates for the first addition contained 15 μL different concentrations of compounds dissolved in HBSS-HEPES containing 0.1% BSA and <0.5% DMSO and was incubated for 20 min after loaded. Positive and negative controls contained 15 μL of HBSS-HEPES (0.1% BSA) alone. The plates were placed in the FLIPR^TETRA (Molecular Devices, Sunnyvale, CA, USA) programmed to measure maximum fluorescence intensity following a second addition of the agonist 5 mM CaCl2. The fluorescence readings were recorded and converted as described previously, and HBSS-HEPES (0.1% BSA) was used in the second addition as a negative control.

For a further series, the system named is HT-29 cells. Description: Cell viability MTT assay, HT-29. Particulars: for viability at 50 µM: HT-29, 50 µM, n = 4; for preferential anti-proliferative activity on HT-29: versus MCF-7, T-47D, A549. The format is cell-based, human. How it is done:
(§4) Human breast cancer cell line MCF-7 and T-47D, lung cancer cell line A549, and colon cancer cell line HT-29 were cultured under 5% carbon dioxide at 37 °C in DMEM Glutamax (Gibco, Life Technologies) supplemented with 10% (v/v) FBS. They were split in a ratio of 1:3–1:6 (ideally 2–4 × 10,000 cells/cm^2) when they reached 70–80% confluence using 0.25% Trypsin-EDTA. For cell viability MTT assay, cells were seeded into 96-well clear bottom culture plates (Corning, Lowell, MA, USA) at a density of 5 × 10^3 cells/well and settled at 37 °C for 24 h.
(§5) Seeded cells were treated with various concentrations of compounds for desired time period (24, 48 and 72 h). After the treatments, the media were removed from each well, and replaced with 25 μL of serum-free media and 25 μL of MTT Reagent (cat. no., ab211091; Abcam, Cambridge, MA, USA). The plate was then incubated at 37 °C for 3 h, and 75 μL of MTT Solvent (cat. no., ab211091; Abcam) was added into each well after incubation. The absorbance was evaluated at 590 nm. Cell-wells treated with 0.1% DMSO were used as positive control and no cell-wells were used as background control.
(Tetrazolium dyes change colour on reduction, which living cells bring about.)

The next series has as its system CaV1. Description: HVA L-type calcium channel FLIPR assay in SH-SY5Y cells. The format is cell-based, human. Particulars: 1 µM CVID present, n = 3, read-out: IC50 CaV1 (HVA CaVs). The protocol: as §1, §2
The subject of another series is MCF-7 cells. Description: Cell viability MTT assay, MCF-7. Particulars: Homo sapiens, 72 h treatment; for viability at 50 µM: MCF7, 50 µM, n = 4. The class given is cell-based, human. The protocol:
as §4, §5

For a further series, the target named is CaV3.2 (Homo sapiens, UniProt O95180). Briefly: T-type calcium channel window current FLIPR assay, CaV3.2. The format is cell-based. Particulars: FLIPR window current, n = 3; read-out: IC50 CaV3.2 (LVA CaVs). How it is done: as §1, §3
Another series concerns T-47D cells. Briefly: Cell viability MTT assay, T-47D. The class given is cell-based, human. Particulars: Homo sapiens, T47D, 72 h treatment; for viability at 50 µM: n = 4. The protocol:
as §4, §5

In another series the target is T2, human CaV3.1 (Homo sapiens, UniProt O43497).
T2 construct: expressed in transfected cells; host or cells: HEK 293 T cells, transient transfection (FuGENE HD)
Description: T-type calcium channel window current FLIPR assay, CaV3.1. The class given is cell-based. Particulars: n = 3, read-out: IC50 CaV3.1 (LVA CaVs). How it is done: as §1, §3

A further series relates to A549 cells. Briefly: Cell viability MTT assay, A549. The format is cell-based, human. Particulars: for viability at 50 µM: A549, 50 µM, n = 4. How it is done: as §4, §5
Series [1] is described as follows: Solubility in assay buffer with 0.1% BSA. The format is physicochemical.
Series [2] deals with voltage-gated calcium channels (VGCC). Briefly: VGCC FLIPR cell-based assays, all channels (overall observation). Also on record: species or system human. How it is done: as §3, §2

CaV3.3, sequence (Q9P0X4 whole entry): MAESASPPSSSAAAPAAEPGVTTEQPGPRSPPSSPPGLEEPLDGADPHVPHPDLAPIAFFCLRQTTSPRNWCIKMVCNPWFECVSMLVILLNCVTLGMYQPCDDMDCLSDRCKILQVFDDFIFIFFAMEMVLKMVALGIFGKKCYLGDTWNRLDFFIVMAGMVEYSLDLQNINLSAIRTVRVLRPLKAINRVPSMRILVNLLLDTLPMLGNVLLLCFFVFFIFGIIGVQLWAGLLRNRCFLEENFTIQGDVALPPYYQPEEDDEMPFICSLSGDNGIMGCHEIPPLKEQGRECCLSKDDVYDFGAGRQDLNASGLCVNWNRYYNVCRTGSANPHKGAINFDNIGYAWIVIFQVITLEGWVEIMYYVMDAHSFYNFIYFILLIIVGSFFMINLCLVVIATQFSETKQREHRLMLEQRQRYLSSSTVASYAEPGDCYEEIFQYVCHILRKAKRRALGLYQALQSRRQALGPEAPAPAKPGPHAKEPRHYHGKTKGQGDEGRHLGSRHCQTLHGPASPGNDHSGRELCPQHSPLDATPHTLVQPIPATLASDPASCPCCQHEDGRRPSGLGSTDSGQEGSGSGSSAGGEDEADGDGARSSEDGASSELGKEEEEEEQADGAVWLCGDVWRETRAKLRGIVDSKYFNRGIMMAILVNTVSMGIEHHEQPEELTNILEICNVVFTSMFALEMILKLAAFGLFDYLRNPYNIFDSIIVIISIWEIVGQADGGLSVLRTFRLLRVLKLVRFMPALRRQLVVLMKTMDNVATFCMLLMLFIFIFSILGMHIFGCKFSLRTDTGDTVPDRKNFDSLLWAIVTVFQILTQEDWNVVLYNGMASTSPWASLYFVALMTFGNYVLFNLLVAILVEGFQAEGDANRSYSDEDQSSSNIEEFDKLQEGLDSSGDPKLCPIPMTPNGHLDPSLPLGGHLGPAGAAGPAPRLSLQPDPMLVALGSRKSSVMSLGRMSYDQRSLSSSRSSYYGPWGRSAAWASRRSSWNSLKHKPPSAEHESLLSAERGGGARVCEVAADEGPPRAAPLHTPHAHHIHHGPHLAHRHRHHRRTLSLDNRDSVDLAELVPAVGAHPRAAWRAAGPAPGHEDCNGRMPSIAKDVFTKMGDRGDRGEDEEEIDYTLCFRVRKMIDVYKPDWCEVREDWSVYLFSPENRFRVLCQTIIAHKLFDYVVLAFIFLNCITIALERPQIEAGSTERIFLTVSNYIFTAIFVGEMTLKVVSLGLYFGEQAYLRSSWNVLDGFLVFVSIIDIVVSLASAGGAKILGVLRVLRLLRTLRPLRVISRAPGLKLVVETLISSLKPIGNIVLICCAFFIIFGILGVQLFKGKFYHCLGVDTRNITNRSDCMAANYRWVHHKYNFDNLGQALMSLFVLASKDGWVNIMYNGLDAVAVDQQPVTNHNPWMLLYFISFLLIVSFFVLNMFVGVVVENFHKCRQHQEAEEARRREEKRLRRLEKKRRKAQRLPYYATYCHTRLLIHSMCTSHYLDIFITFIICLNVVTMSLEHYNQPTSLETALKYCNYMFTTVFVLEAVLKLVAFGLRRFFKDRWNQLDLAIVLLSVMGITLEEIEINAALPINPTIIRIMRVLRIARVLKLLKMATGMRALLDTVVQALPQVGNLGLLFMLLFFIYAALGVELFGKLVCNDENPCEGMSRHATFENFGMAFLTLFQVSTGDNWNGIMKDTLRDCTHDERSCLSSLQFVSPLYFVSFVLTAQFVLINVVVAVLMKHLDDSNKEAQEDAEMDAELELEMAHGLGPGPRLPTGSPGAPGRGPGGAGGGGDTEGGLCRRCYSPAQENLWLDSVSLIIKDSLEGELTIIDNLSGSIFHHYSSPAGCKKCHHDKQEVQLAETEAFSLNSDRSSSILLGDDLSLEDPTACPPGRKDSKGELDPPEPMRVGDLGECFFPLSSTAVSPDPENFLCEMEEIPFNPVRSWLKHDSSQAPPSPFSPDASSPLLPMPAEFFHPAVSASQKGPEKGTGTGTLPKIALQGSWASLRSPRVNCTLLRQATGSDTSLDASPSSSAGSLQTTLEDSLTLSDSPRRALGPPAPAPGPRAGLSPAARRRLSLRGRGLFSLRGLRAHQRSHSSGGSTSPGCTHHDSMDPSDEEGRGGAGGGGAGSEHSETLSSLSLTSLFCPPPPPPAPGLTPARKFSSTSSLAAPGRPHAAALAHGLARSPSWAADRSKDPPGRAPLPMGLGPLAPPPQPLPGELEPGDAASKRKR
T2 sequence (O43497 whole entry): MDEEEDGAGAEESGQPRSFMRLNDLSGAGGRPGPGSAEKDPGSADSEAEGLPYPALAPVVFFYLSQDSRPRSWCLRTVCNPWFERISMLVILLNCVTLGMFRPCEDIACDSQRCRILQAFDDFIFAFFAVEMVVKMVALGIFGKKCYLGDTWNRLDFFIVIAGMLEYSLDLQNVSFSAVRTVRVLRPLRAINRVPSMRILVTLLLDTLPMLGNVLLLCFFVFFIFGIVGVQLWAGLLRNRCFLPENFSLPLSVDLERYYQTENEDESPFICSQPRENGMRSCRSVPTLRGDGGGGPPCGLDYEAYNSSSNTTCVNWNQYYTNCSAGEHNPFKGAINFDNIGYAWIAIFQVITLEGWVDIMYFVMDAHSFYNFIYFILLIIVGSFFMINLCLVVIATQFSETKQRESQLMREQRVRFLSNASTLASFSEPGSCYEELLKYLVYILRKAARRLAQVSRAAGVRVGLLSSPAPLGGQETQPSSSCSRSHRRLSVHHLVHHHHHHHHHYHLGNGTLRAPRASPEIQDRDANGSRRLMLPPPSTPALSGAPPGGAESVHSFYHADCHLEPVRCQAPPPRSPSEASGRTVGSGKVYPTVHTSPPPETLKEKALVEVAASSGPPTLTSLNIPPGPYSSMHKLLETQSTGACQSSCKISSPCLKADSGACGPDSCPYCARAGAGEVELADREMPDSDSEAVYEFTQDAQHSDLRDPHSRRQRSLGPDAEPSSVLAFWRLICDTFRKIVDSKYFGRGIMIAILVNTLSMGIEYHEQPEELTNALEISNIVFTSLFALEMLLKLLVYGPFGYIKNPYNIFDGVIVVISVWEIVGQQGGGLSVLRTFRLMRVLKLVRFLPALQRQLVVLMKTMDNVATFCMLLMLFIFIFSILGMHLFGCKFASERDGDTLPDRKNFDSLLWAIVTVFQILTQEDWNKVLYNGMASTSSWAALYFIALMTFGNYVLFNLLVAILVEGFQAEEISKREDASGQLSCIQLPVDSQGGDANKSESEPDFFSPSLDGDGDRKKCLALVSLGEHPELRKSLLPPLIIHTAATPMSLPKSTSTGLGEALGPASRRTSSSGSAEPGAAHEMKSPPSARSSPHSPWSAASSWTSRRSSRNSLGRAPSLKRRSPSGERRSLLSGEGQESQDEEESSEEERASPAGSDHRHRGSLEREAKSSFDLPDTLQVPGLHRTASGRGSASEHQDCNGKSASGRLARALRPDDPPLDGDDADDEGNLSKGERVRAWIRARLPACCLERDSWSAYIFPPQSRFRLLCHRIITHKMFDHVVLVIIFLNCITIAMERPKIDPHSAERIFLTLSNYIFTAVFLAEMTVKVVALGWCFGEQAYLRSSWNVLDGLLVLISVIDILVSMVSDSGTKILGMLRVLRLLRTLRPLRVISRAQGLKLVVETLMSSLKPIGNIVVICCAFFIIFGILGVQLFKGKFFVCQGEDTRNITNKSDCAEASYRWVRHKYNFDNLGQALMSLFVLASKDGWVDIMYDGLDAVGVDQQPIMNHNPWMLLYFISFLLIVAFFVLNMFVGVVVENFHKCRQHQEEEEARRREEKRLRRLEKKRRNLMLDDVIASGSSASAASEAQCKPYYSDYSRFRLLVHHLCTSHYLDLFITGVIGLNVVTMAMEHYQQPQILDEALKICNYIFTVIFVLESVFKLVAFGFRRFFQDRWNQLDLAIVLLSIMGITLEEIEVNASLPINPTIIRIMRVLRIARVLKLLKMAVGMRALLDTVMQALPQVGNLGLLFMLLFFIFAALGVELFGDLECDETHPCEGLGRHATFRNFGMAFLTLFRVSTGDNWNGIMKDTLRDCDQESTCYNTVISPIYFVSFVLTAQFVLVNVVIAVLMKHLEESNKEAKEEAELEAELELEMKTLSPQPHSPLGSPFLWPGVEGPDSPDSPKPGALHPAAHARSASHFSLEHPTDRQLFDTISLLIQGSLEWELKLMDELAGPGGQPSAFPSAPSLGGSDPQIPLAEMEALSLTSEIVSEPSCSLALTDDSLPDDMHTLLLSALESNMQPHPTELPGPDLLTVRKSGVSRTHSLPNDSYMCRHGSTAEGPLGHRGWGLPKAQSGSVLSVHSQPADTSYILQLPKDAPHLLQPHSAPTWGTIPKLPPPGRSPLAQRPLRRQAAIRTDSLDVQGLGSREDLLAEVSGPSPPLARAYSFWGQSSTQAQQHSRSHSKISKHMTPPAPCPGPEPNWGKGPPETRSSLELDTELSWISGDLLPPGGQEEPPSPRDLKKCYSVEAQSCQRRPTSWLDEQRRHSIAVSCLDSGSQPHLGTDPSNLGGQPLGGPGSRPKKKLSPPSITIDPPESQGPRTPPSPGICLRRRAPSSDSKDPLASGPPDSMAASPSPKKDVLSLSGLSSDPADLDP

The IC50 is the concentration needed to halve the response being measured. For orientation: viability means a read-out of living cells in per cent, often relative to untreated cells. For the compound `O=C(c1c[nH]c2ccccc12)c1cn(S(=O)(=O)O)c2ccccc12` [III], the IC50 stood at 60.9 ± 3.37 µM at CaV2.2; 17.8 ± 4.64 µM on CaV3.3; 192 ± 30.5 µM in the series on CaV1; 106 ± 11.8 µM at CaV3.2; 58.8 ± 6.85 µM at human CaV3.1. Further, the “inhibition against CaV3.3” value on CaV3.3 is listed as “moderate inhibition”. The viability at 50 µM with HT-29 cells (Homo sapiens, 72 h treatment) was 21.6 ± 1.1%; in the series with MCF-7 cells it was 84.9 ± 5.75%; in the series with T-47D cells, 79.7 ± 3.74%; in the series on A549 cells (Homo sapiens, 72 h treatment), 211 ± 4.69%. In addition, the “preferential anti-proliferative activity on HT-29” value in the series with HT-29 cells is given as “preferential anti-proliferative activity”. Also, the “effect on A549 cell proliferation” value with A549 cells (50 µM, 72 h) is “promoted A549 cell proliferation”.
For the compound `CCOC(=O)C(=O)c1cn(S(=O)(=O)c2ccc(C)cc2)c2ccccc12` [VII], the IC50 at CaV2.2 was 32.1 ± 3.01 µM; at CaV3.3 it was 13.8 ± 2.02 µM; in the series on CaV1, 32.1 ± 0.84 µM; on CaV3.2, 17.1 ± 1.87 µM; at human CaV3.1, 43.5 ± 3.72 µM.
In the case of `O=C(c1cn(S(=O)(=O)O)c2ccccc12)c1cn(S(=O)(=O)O)c2ccccc12` [XI, 3,3'-carbonylbis(1H-indole-1-sulfonic acid)], the “solubility in buffer” value in [1] is given as “highly insoluble”.
In the case of `O=C(c1c[nH]c2cc(Br)ccc12)c1cn(S(=O)(=O)O)c2cc(Br)ccc12` [V], the IC50 at CaV2.2 was 90.2 ± 4.93 µM; at CaV3.3, 92.6 ± 1.46 µM; in the series with HT-29 cells (Homo sapiens, HT-29, 72 h, 72 h treatment, n = 3), 15 µM; in the series on CaV1, 88.2 ± 7.95 µM; with MCF-7 cells (MCF7, 72 h, n = 3), 51 µM; on CaV3.2 it was 67.5 ± 6.05 µM. For the same compound, the IC50 was found to be 38 µM in the series with T-47D cells (72 h, n = 3); 92.1 ± 4.69 µM on human CaV3.1; 27 µM in the series with A549 cells (Homo sapiens, A549, 72 h, 72 h treatment, n = 3). For the same compound, the “better antiproliferative effect on HT-29 cell viability than on the other three cancer cell lines” value in the series with HT-29 cells (72 h treatment) is given as at least 2 fold. Moreover, the viability at 50 µM came out at 0.93 ± 0.06% with HT-29 cells (Homo sapiens, 72 h treatment); 29.52 ± 0.19% in the series on MCF-7 cells; 31.4 ± 0.43% with T-47D cells; 14.1 ± 0.15% in the series on A549 cells (Homo sapiens, 72 h treatment). In addition, the “preferential anti-proliferative activity on HT-29” value with HT-29 cells was “preferential anti-proliferative activity”. Further, the “inhibition of all the Ca2+ responses” value in series [2] is given as “poor inhibition”.
For the compound `CCOC(=O)C(=O)c1c[nH]c2ccccc12` [VI], the IC50 at CaV2.2 was 53.8 ± 2.43 µM; at CaV3.3, above 200 µM; in the series on CaV1, above 200 µM; at CaV3.2 it was above 200 µM; at human CaV3.1, 154 ± 18.1 µM. The “inhibition of all the Ca2+ responses” value in series [2] is “poor inhibition”.
On to `Cc1ccc(S(=O)(=O)n2cc(C(=O)c3cn(S(=O)(=O)c4ccc(C)cc4)c4ccccc34)c3ccccc32)cc1` [X], for which the IC50 at CaV2.2 turned out to be 54.5 ± 1.84 µM; on CaV3.3, 78.3 ± 4.79 µM; with CaV1 it was 47.9 ± 1.37 µM; at CaV3.2, 99.9 ± 3.56 µM; at human CaV3.1, 53.4 ± 0.93 µM. Further, the “inhibition of all the Ca2+ responses” value in series [2] is reported as “poor inhibition”.
